How the values were obtained:
HL-60(TB) = assay type: cell-based, human; conditions: Leukemia, 10 μM, 48 h
Description: The human tumor cell lines of the cancer screening panel were grown in RPMI 1640 medium containing 5% fetal bovine serum and 2 mM L-glutamine. For experimental screens, cells were inoculated into 96 well microtiter plates in 100 μL at plating densities ranging from 5,000 to 40,000 cells/well depending on the doubling time of individual cell lines. After cell inoculation, the microtiter plates were incubated at 37° C., 5% carbon dioxide, 95% air and 100% relative humidity for 24 hours prior to addition of the compounds.

EKVX = assay: NCI DTP human tumor cell line screen (SRB); assay type: cell-based; conditions: Non-Small Cell Lung Cancer, 10 μM, 48 h
Description: (§1) Representative compounds of the invention, prepared as described in EXAMPLES 1-6, were submitted to the Developmental Therapeutics Program of the United States National Cancer Institute (NCl) to screen for anti-cancer activity. The anti-cancer activities of the six compounds were tested against approximately 60 human tumor cell lines representing leukemia, melanoma, and cancers of the lung, colon, breast, ovary, kidney, prostate, and brain. The following screening methodology was provided by the NCl. […] For experimental screens, cells were inoculated into 96 well microtiter plates in 100 μL at plating densities ranging from 5,000 to 40,000 cells/well depending on the doubling time of individual cell lines. After cell inoculation, the microtiter plates were incubated at 37° C., 5% carbon dioxide, 95% air and 100% relative humidity for 24 hours prior to addition of the compounds. After 24 hours of incubation, two plates of each cell line were fixed in situ with trichloroacetic acid (TCA) to represent a measurement of the cell population for each cell line at the time of compound addition (Tz). The compounds were solubilized in dimethyl sulfoxide at 400-fold the desired final maximum test concentration and stored frozen prior to use. At the time of drug addition, frozen aliquots of the compounds thawed and diluted with complete medium containing 50 μg/ml gentamicin. Aliquots of 100 μl of these different compound dilutions were added to the appropriate microtiter wells already containing 100 μl of medium, resulting in the required final compound concentration of 10 μM. Following compound addition, the plates were incubated for an additional 48 h at 37° C., 5% carbon dioxide, 95% air, and 100% relative humidity. For adherent cells, the assay was terminated by the addition of cold TCA. Cells were fixed in situ by the gentle addition of 50 μl of cold 50% (w/v) TCA (final concentration, 10% TCA) and incubated for 60 minutes at 4° C. The supernatant was discarded, and the plates were washed five times with tap water and air dried. Sulforhodamine B (SRB) solution (100 μl) at 0.4% (w/v) in 1% acetic acid was added to each well, and plates were incubated for 10 minutes at room temperature. After staining, unbound dye was removed by washing five times with 1% acetic acid and the plates were air dried. Bound stain was subsequently solubilized with 10 mM trizma base, and the absorbance was read on an automated plate reader at a wavelength of 515 nm. For suspension cells, the methodology was the same except that the assay was terminated by fixing settled cells at the bottom of the wells by gently adding 50 μl of 80% TCA (final concentration, 16% TCA). Using the three absorbance measurements [time zero, (Tz), control growth, (C), and test growth in the presence of compound (Ti)], the percentage growth was calculated at each of the compound concentrations levels. Percentage growth inhibition was calculated with the following algorithms: [(Ti−Tz)/(C−Tz)]×100 for concentrations for which Ti>/=Tz [(Ti−Tz)/Tz]×100 for concentrations for which Ti<Tz The results of the NCl in vitro anticancer screening with six compounds against various human tumor cell lines are presented below in Tables 2-7. […] The growth percent mean, delta, and range for each compound are given below.

K-562 = assay: NCI DTP human tumor cell line screen (SRB); assay type: cell-based; conditions: Leukemia, 10 μM, 48 h
Description: as §1

LOX IMVI = assay: NCI DTP human tumor cell line screen (SRB); assay type: cell-based; conditions: Melanoma, 10 μM, 48 h
Description: as §1

SNB-75 = assay: NCI DTP human tumor cell line screen (SRB); assay type: cell-based; conditions: CNS Cancer, 10 μM, 48 h
Description: as §1

SF-295 = assay: NCI DTP human tumor cell line screen (SRB); assay type: cell-based; conditions: CNS Cancer, 10 μM, 48 h
Description: as §1

SF-539 = assay: NCI DTP human tumor cell line screen (SRB); assay type: cell-based; conditions: CNS Cancer, 10 μM, 48 h
Description: as §1

UACC-257 = assay: NCI DTP human tumor cell line screen (SRB); assay type: cell-based; conditions: Melanoma, 10 μM, 48 h
Description: as §1

T-47D = assay: NCI DTP human tumor cell line screen (SRB); assay type: cell-based; conditions: Breast Cancer, 10 μM, 48 h
Description: as §1

SK-MEL-2 = assay: NCI DTP human tumor cell line screen (SRB); assay type: cell-based; conditions: Melanoma, 10 μM, 48 h
Description: as §1

UACC-62 = assay: NCI DTP human tumor cell line screen (SRB); assay type: cell-based; conditions: Melanoma, 10 μM, 48 h
Description: as §1

SN12C = assay: NCI DTP human tumor cell line screen (SRB); assay type: cell-based; conditions: Renal Cancer, 10 μM, 48 h
Description: as §1

PC-3 = assay: NCI DTP human tumor cell line screen (SRB); assay type: cell-based; conditions: Prostate Cancer, 10 μM, 48 h
Description: as §1

SK-MEL-28 = assay: NCI DTP human tumor cell line screen (SRB); assay type: cell-based; conditions: Melanoma, 10 μM, 48 h
Description: as §1

SR = assay: NCI DTP human tumor cell line screen (SRB); assay type: cell-based; conditions: Leukemia, 10 μM, 48 h
Description: as §1

RPMI-8226 = assay: NCI DTP human tumor cell line screen (SRB); assay type: cell-based; conditions: Leukemia, 10 μM, 48 h
Description: as §1

ACHN = assay: NCI DTP human tumor cell line screen (SRB); assay type: cell-based; conditions: Renal Cancer, 10 μM, 48 h
Description: as §1

SNB-19 = assay: NCI DTP human tumor cell line screen (SRB); assay type: cell-based; conditions: CNS Cancer, 10 μM, 48 h
Description: as §1

OVCAR-3 = assay: NCI DTP human tumor cell line screen (SRB); assay type: cell-based; conditions: Ovarian Cancer, 10 μM, 48 h
Description: as §1

SK-OV-3 = assay: NCI DTP human tumor cell line screen (SRB); assay type: cell-based; conditions: Ovarian Cancer, 10 μM, 48 h
Description: as §1

COLO 205 = assay: NCI DTP human tumor cell line screen (SRB); assay type: cell-based; conditions: Colon Cancer, 10 μM, 48 h
Description: as §1

CAKI-1 = assay: NCI DTP human tumor cell line screen (SRB); assay type: cell-based; conditions: Renal Cancer, 10 μM, 48 h
Description: as §1

SK-MEL-5 = assay: NCI DTP human tumor cell line screen (SRB); assay type: cell-based; conditions: Melanoma, 10 μM, 48 h
Description: as §1

U251 = assay: NCI DTP human tumor cell line screen (SRB); assay type: cell-based; conditions: CNS Cancer, 10 μM, 48 h
Description: as §1

OVCAR-4 = assay: NCI DTP human tumor cell line screen (SRB); assay type: cell-based; conditions: Ovarian Cancer, 10 μM, 48 h
Description: as §1

NCI-H226 = assay: NCI DTP human tumor cell line screen (SRB); assay type: cell-based; conditions: Non-Small Cell Lung Cancer, 10 μM, 48 h
Description: as §1

HCT-116 = assay: NCI DTP human tumor cell line screen (SRB); assay type: cell-based; conditions: Colon Cancer, 10 μM, 48 h
Description: as §1

MDA-MB-231/ATCC = assay: NCI DTP human tumor cell line screen (SRB); assay type: cell-based; conditions: Breast Cancer, 10 μM, 48 h
Description: as §1

HS 578T = assay: NCI DTP human tumor cell line screen (SRB); assay type: cell-based; conditions: Breast Cancer, 10 μM, 48 h
Description: as §1

A498 = assay: NCI DTP human tumor cell line screen (SRB); assay type: cell-based; conditions: Renal Cancer, 10 μM, 48 h
Description: as §1

CCRF-CEM = assay: NCI DTP human tumor cell line screen (SRB); assay type: cell-based; conditions: Leukemia, 10 μM, 48 h
Description: as §1

OVCAR-8 = assay: NCI DTP human tumor cell line screen (SRB); assay type: cell-based; conditions: Ovarian Cancer, 10 μM, 48 h
Description: as §1

SMILES | Growth Percent (HL-60(TB)) [%] | Growth Percent (EKVX) [%] | Growth Percent (K-562) [%] | Growth Percent (LOX IMVI) [%] | Growth Percent (SNB-75) [%] | Growth Percent (SF-295) [%] | Growth Percent (SF-539) [%] | Growth Percent (UACC-257) [%] | Growth Percent (T-47D) [%] | Growth Percent (SK-MEL-2) [%] | Growth Percent (UACC-62) [%] | Growth Percent (SN12C) [%] | Growth Percent (PC-3) [%] | Growth Percent (SK-MEL-28) [%] | Growth Percent (SR) [%] | Growth Percent (RPMI-8226) [%] | Growth Percent (ACHN) [%] | Growth Percent (SNB-19) [%] | Growth Percent (OVCAR-3) [%] | Growth Percent (SK-OV-3) [%] | also measured
CC1CCC2C(C)C(OCc3ccc(C(=O)NN=Cc4ccccc4O)nc3)OC3OC4(C)CCC1C32OO4 (stereo not shown) [ART-Pyr-Sal, N′-(2-hydroxybenzylidene)-5-(dihydroxyartemisinin-methyl)-2-pyridine carbohydrazide] | 5.22 | 32.52 | 26.88 | 2.20 | −6.97 | 4.52 | −29.69 | 6.22 | 12.21 | −23.42 | 7.61 | 22.81 | 21.62 | 29.92 | −30.14 | 13.76 | 10.64 | 20.71 | 35.18 | 11.40 | Growth Percent (COLO 205): 30.63%; Growth Percent (CAKI-1): 18.48%; Growth Percent (SK-MEL-5): −18.98%; Growth Percent (U251): 14.70%; Growth Percent (OVCAR-4): 23.04%; Growth Percent (NCI-H226): 1.83%; Growth Percent (HCT-116): 18.34%; Growth Percent (MDA-MB-231/ATCC): 50.08%; Growth Percent (HS 578T): 19.38%; Growth Percent (A498): 5.27%; Growth Percent (CCRF-CEM): −17.26%; Growth Percent (OVCAR-8): 8.81%
CC1CCC2C(C)C(OCCn3cc(C(=O)NN=Cc4ccccc4O)nn3)OC3OC4(C)CCC1C32OO4 (stereo not shown) [ART-Triazole-Sal, N′-(2-hydroxybenzylidene)-1-(dihydroxyartemisinin-ethyl)-1H-1,2,3-triazole-4-carbohydrazide] | −31.16 | 35.04 | 17.31 | 6.87 | −8.40 | 24.32 | 14.19 | 19.39 | 37.45 | −15.86 | 10.70 | 45.26 | 38.28 | 27.59 | 0.08 | 18.69 | 15.69 | 45.73 | 50.36 | 32.87 | Growth Percent (COLO 205): 26.05%; Growth Percent (CAKI-1): 40.15%; Growth Percent (SK-MEL-5): 12.45%; Growth Percent (U251): 24.89%; Growth Percent (OVCAR-4): 15.89%; Growth Percent (NCI-H226): 26.98%; Growth Percent (HCT-116): 20.87%; Growth Percent (MDA-MB-231/ATCC): 52.54%; Growth Percent (HS 578T): 48.29%; Growth Percent (A498): 50.94%; Growth Percent (CCRF-CEM): −14.86%; Growth Percent (OVCAR-8): 25.82%
